Test results taken from US8399480B2, “Hydroxymethyl pyrrolidines as beta 3 adrenergic receptor agonists” (Merck Sharp & Dohme Corp., priority 2008, dated 2013).

The molecules below were run against T1, human β3 adrenergic receptor (Homo sapiens, UniProt P13945) (assay: Functional assay: cAMP production (LANCE TR-FRET) in CHO cells stably transfected with cloned β3 adrenergic receptor). Conditions: Table 5; read-out: Human β3 Functional.
T1 construct: expressed in transfected cells; host or cells: Chinese hamster ovary (CHO) cells, stably transfected
T1 sequence (P13945 whole entry): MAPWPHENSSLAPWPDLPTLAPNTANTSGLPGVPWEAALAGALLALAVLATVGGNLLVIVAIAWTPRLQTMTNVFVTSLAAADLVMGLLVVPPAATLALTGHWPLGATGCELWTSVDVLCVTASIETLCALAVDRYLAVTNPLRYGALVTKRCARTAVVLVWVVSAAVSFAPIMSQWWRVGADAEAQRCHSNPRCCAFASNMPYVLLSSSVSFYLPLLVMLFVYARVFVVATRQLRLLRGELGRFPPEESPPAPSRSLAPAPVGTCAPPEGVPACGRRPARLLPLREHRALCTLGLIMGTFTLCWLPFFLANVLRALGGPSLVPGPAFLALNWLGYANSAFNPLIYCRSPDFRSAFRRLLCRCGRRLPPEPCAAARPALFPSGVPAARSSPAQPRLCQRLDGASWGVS
Assay type: cell-based
Method: Chinese hamster ovary (CHO) cells, stably transfected with the cloned β-adrenergic receptor (β1, β2 or β3) are harvested after 3 days of subculturing. Harvesting of cells is done with Enzyme-free Dissociation Media (Specialty Media). Cells are then counted and resuspended in assay buffer (Hank's Balanced salt solution supplemented with 5 mM HEPES, 0.1% BSA) containing a phosphodiesterase inhibitor (IBMX, 0.6 mM). The reaction is initiated by mixing 6,000 cells in 6 μL with 6 μL Alexa Fluor labeled cAMP antibody (LANCE™ kit) which is then added to an assay well containing 12 μL of compound (diluted in assay buffer to 2× final concentration). The reaction proceeds for 30 min at room temperature and is terminated by the addition of 24 μL detection buffer (LANCE™ kit). The assay plate is then incubated for 1 h at room temperature and time-resolved fluorescence measured on a Perkin Elmer Envision reader or equivalent. The unknown cAMP level is determined by comparing fluorescence levels to a cAMP standard curve.
The non-selective, full agonist β-adrenergic ligand isoproterenol is used at all three receptors to determine maximal stimulation. […] Data are analyzed using Microsoft Excel and Graphpad Prism or an internally developed data analysis software package.

With `Cc1ccc(=O)n(C(C)C(=O)Nc2ccc(C[C@@H]3CC[C@H]([C@H](O)c4ccccc4)N3)cc2)n1` (single isomer, unassigned) [Example 165] as the molecule, how does the EC50 read?
Its EC50 is 0.001 to 0.01 µM.

Which EC50 does the source give for `CC(C(=O)Nc1ccc(C[C@@H]2CC[C@H]([C@H](O)c3ccccc3)N2)cc1)n1cnc2ccccc2c1=O` (single isomer, unassigned) [Example 166] here?
The EC50 was 0.001 to 0.01 µM.

How did the EC50 turn out when `CC(C(=O)Nc1ccc(C[C@@H]2CC[C@H]([C@H](O)c3ccccc3)N2)cc1)n1cnc2ccccc2c1=O` (single isomer, unassigned) [Example 167] was run?
Its EC50 is less than 0.001 µM.

Which EC50 does the source give for `CC(C(=O)Nc1ccc(C[C@@H]2CC[C@H]([C@H](O)c3ccccc3)N2)cc1)c1nnc[nH]1` (single isomer, unassigned) [Example 168] here?
Its EC50 is 0.001 to 0.01 µM.

`CC(C(=O)Nc1ccc(C[C@@H]2CC[C@H]([C@H](O)c3ccccc3)N2)cc1)n1cnnn1` (single isomer, unassigned) [Example 172] was tested. Which EC50 did it give?
Its EC50 is 0.001 to 0.01 µM.

Which EC50 does the source give for `CC(C(=O)Nc1ccc(C[C@@H]2CC[C@H]([C@H](O)c3ccccc3)N2)cc1)n1cnnn1` (single isomer, unassigned) [Example 173] here?
The EC50 was 0.001 to 0.01 µM.

`CC(C(=O)Nc1ccc(C[C@@H]2CC[C@H]([C@H](O)c3ccccc3)N2)cc1)n1cncn1` (single isomer, unassigned) [Example 176] was tested. Which EC50 did it give?
The EC50 was 0.001 to 0.01 µM.

Which EC50 does the source give for `CC(C(=O)Nc1ccc(C[C@@H]2CC[C@H]([C@H](O)c3ccccc3)N2)cc1)n1cncn1` (single isomer, unassigned) [Example 177] here?
Its EC50 is 0.001 to 0.01 µM.

`CC(C(=O)Nc1ccc(C[C@@H]2CC[C@H]([C@H](O)c3ccccc3)N2)cc1)n1nccn1` (single isomer, unassigned) [Example 178] was tested. Which EC50 did it give?
The EC50 was 0.001 to 0.01 µM.

For `CC(C(=O)Nc1ccc(C[C@@H]2CC[C@H]([C@H](O)c3ccccc3)N2)cc1)n1nccn1` (single isomer, unassigned) [Example 179], which EC50 is on record?
Its EC50 is 0.001 to 0.01 µM.

Which EC50 does the source give for `CC(C(=O)Nc1ccc(C[C@@H]2CC[C@H]([C@H](O)c3ccccc3)N2)cc1)n1cccn1` (single isomer, unassigned) [Example 181] here?
The EC50 was 0.001 to 0.01 µM.

For `CC(C(=O)Nc1ccc(C[C@@H]2CC[C@H]([C@H](O)c3ccccc3)N2)cc1)n1ccnn1` (single isomer, unassigned) [Example 182], which EC50 is on record?
Its EC50 is 0.011 to 0.1 µM.

With `CC(C(=O)Nc1ccc(C[C@@H]2CC[C@H]([C@H](O)c3ccccc3)N2)cc1)n1ccnn1` (single isomer, unassigned) [Example 183] as the molecule, how does the EC50 read?
The EC50 was 0.001 to 0.01 µM.

For `Cc1cc(C(C)C(=O)Nc2ccc(C[C@@H]3CC[C@H]([C@H](O)c4ccccc4)N3)cc2)[nH]n1` (single isomer, unassigned) [Example 184], which EC50 is on record?
The EC50 was 0.011 to 0.1 µM.

`Cc1cc(C(C)C(=O)Nc2ccc(C[C@@H]3CC[C@H]([C@H](O)c4ccccc4)N3)cc2)[nH]n1` (single isomer, unassigned) [Example 185] was tested. Which EC50 did it give?
Its EC50 is 0.001 to 0.01 µM.

Which EC50 does the source give for `CC(C(=O)Nc1ccc(CC2CCC(C(O)c3ccccc3)N2)cc1)c1ccn(C)n1` (single isomer, unassigned) [Example 186] here?
Its EC50 is 0.101 to 1 µM.

`CC(C(=O)Nc1ccc(CC2CCC(C(O)c3ccccc3)N2)cc1)c1ccn(C)n1` (single isomer, unassigned) [Example 187] was tested. Which EC50 did it give?
Its EC50 is 0.001 to 0.01 µM.

With `COC(=O)c1cn(C(C)C(=O)Nc2ccc(C[C@@H]3CC[C@H]([C@H](O)c4ccccc4)N3)cc2)nn1` (single isomer, unassigned) [Example 188] as the molecule, how does the EC50 read?
Its EC50 is 0.001 to 0.01 µM.

With `COC(=O)c1cn(C(C)C(=O)Nc2ccc(C[C@@H]3CC[C@H]([C@H](O)c4ccccc4)N3)cc2)nn1` (single isomer, unassigned) [Example 189] as the molecule, how does the EC50 read?
Its EC50 is 0.011 to 0.1 µM.

How did the EC50 turn out when `CC(C(=O)Nc1ccc(C[C@@H]2CC[C@H]([C@H](O)c3ccccc3)N2)cc1)n1cc(C(=O)O)nn1` (single isomer, unassigned) [Example 190] was run?
Its EC50 is 0.011 to 0.1 µM.

With `CC(C(=O)Nc1ccc(C[C@@H]2CC[C@H]([C@H](O)c3ccccc3)N2)cc1)n1cc(C(=O)O)nn1` (single isomer, unassigned) [Example 191] as the molecule, how does the EC50 read?
Its EC50 is 0.011 to 0.1 µM.

For `CC(C(=O)Nc1ccc(C[C@@H]2CC[C@H]([C@H](O)c3ccccc3)N2)cc1)n1cc(C(N)=O)nn1` (single isomer, unassigned) [Example 192], which EC50 is on record?
The EC50 was 0.001 to 0.01 µM.

With `CC(C(=O)Nc1ccc(C[C@@H]2CC[C@H]([C@H](O)c3ccccc3)N2)cc1)n1cc(C(N)=O)nn1` (single isomer, unassigned) [Example 193] as the molecule, how does the EC50 read?
Its EC50 is 0.011 to 0.1 µM.

With `COC(=O)c1cnnn1C(C)C(=O)Nc1ccc(C[C@@H]2CC[C@H]([C@H](O)c3ccccc3)N2)cc1` (single isomer, unassigned) [Example 194] as the molecule, how does the EC50 read?
The EC50 was 0.011 to 0.1 µM.

Which EC50 does the source give for `COC(=O)c1cnnn1C(C)C(=O)Nc1ccc(C[C@@H]2CC[C@H]([C@H](O)c3ccccc3)N2)cc1` (single isomer, unassigned) [Example 195] here?
Its EC50 is 0.001 to 0.01 µM.

With `CC(C(=O)Nc1ccc(C[C@@H]2CC[C@H]([C@H](O)c3ccccc3)N2)cc1)n1nncc1C(=O)O` (single isomer, unassigned) [Example 196] as the molecule, how does the EC50 read?
Its EC50 is 0.001 to 0.01 µM.

`CC(C(=O)Nc1ccc(C[C@@H]2CC[C@H]([C@H](O)c3ccccc3)N2)cc1)n1nncc1C(=O)O` (single isomer, unassigned) [Example 197] was tested. Which EC50 did it give?
Its EC50 is 0.001 to 0.01 µM.

Which EC50 does the source give for `CC(C(=O)Nc1ccc(C[C@@H]2CC[C@H]([C@H](O)c3ccccc3)N2)cc1)n1nncc1C(N)=O` (single isomer, unassigned) [Example 198] here?
The EC50 was 0.011 to 0.1 µM.

With `CC(C(=O)Nc1ccc(C[C@@H]2CC[C@H]([C@H](O)c3ccccc3)N2)cc1)n1nncc1C(N)=O` (single isomer, unassigned) [Example 199] as the molecule, how does the EC50 read?
Its EC50 is 0.001 to 0.01 µM.

With `CC(C(=O)Nc1ccc(C[C@@H]2CC[C@H]([C@H](O)c3ccccc3)N2)cc1)c1nccs1` (single isomer, unassigned) [Example 200] as the molecule, how does the EC50 read?
Its EC50 is less than 0.001 µM.

With `CC(C(=O)Nc1ccc(C[C@@H]2CC[C@H]([C@H](O)c3ccccc3)N2)cc1)c1nccs1` (single isomer, unassigned) [Example 201] as the molecule, how does the EC50 read?
The EC50 was 0.001 to 0.01 µM.

Which EC50 does the source give for `CC(C(=O)Nc1ccc(C[C@@H]2CC[C@H]([C@H](O)c3ccccc3)N2)cc1)n1ccccc1=O` (single isomer, unassigned) [Example 202] here?
Its EC50 is 0.001 to 0.01 µM.

How did the EC50 turn out when `CC(C(=O)Nc1ccc(C[C@@H]2CC[C@H]([C@H](O)c3ccccc3)N2)cc1)c1ccccn1` (single isomer, unassigned) [Example 204] was run?
The EC50 was 0.001 to 0.01 µM.

How did the EC50 turn out when `CC(C(=O)Nc1ccc(C[C@@H]2CC[C@H]([C@H](O)c3ccccc3)N2)cc1)c1ccccn1` (single isomer, unassigned) [Example 205] was run?
The EC50 was 0.001 to 0.01 µM.

`CC(C(=O)Nc1ccc(C[C@@H]2CC[C@H]([C@H](O)c3ccccc3)N2)cc1)c1cnccn1` (single isomer, unassigned) [Example 206] was tested. Which EC50 did it give?
The EC50 was 0.001 to 0.01 µM.

With `CC(C(=O)Nc1ccc(C[C@@H]2CC[C@H]([C@H](O)c3ccccc3)N2)cc1)c1cnccn1` (single isomer, unassigned) [Example 207] as the molecule, how does the EC50 read?
Its EC50 is 0.001 to 0.01 µM.

`CC(C(=O)Nc1ccc(C[C@@H]2CC[C@H]([C@H](O)c3ccccc3)N2)cc1)N1CCOC1=O` (single isomer, unassigned) [Example 208] was tested. Which EC50 did it give?
Its EC50 is 0.001 to 0.01 µM.

For `CC(C(=O)Nc1ccc(C[C@@H]2CC[C@H]([C@H](O)c3ccccc3)N2)cc1)N1CCOC1=O` (single isomer, unassigned) [Example 209], which EC50 is on record?
The EC50 was 0.011 to 0.1 µM.

`COc1ncncc1C(C)C(=O)Nc1ccc(C[C@@H]2CC[C@H]([C@H](O)c3ccccc3)N2)cc1` (single isomer, unassigned) [Example 212] was tested. Which EC50 did it give?
Its EC50 is 0.011 to 0.1 µM.

`COc1ncncc1C(C)C(=O)Nc1ccc(C[C@@H]2CC[C@H]([C@H](O)c3ccccc3)N2)cc1` (single isomer, unassigned) [Example 213] was tested. Which EC50 did it give?
The EC50 was 0.011 to 0.1 µM.

Which EC50 does the source give for `CC(Oc1cccnn1)C(=O)Nc1ccc(C[C@@H]2CC[C@H]([C@H](O)c3ccccc3)N2)cc1` (single isomer, unassigned) [Example 214] here?
Its EC50 is 0.101 to 1 µM.

`CC(Oc1cccnn1)C(=O)Nc1ccc(C[C@@H]2CC[C@H]([C@H](O)c3ccccc3)N2)cc1` (single isomer, unassigned) [Example 215] was tested. Which EC50 did it give?
The EC50 was 0.011 to 0.1 µM.

For `CCC(C(=O)Nc1ccc(C[C@@H]2CC[C@H]([C@H](O)c3ccccc3)N2)cc1)n1nccn1` (single isomer, unassigned) [Example 216], which EC50 is on record?
The EC50 was 0.001 to 0.01 µM.

Which EC50 does the source give for `CCC(C(=O)Nc1ccc(C[C@@H]2CC[C@H]([C@H](O)c3ccccc3)N2)cc1)n1nccn1` (single isomer, unassigned) [Example 217] here?
The EC50 was 0.001 to 0.01 µM.

`CCC(C(=O)Nc1ccc(C[C@@H]2CC[C@H]([C@H](O)c3ccccc3)N2)cc1)n1cccn1` (single isomer, unassigned) [Example 218] was tested. Which EC50 did it give?
The EC50 was 0.001 to 0.01 µM.

For `CCC(C(=O)Nc1ccc(C[C@@H]2CC[C@H]([C@H](O)c3ccccc3)N2)cc1)n1cccn1` (single isomer, unassigned) [Example 219], which EC50 is on record?
The EC50 was 0.001 to 0.01 µM.

`COCCC(C(=O)Nc1ccc(C[C@@H]2CC[C@H]([C@H](O)c3ccccc3)N2)cc1)n1cccn1` (single isomer, unassigned) [Example 223] was tested. Which EC50 did it give?
Its EC50 is 0.001 to 0.01 µM.

`COCCC(C(=O)Nc1ccc(C[C@@H]2CC[C@H]([C@H](O)c3ccccc3)N2)cc1)n1cccn1` (single isomer, unassigned) [Example 224] was tested. Which EC50 did it give?
Its EC50 is 0.011 to 0.1 µM.

Same assay, conditions: Table 6; read-out: Human β3 Functional

For `Nc1nc2c(s1)CCCC2C(=O)Nc1ccc(CC2CCC(C(O)c3ccccc3)N2)cc1` (single isomer, unassigned) [Example 227], which EC50 is on record?
Its EC50 is 0.101 to 1 µM.

With `Nc1nc2c(s1)CCCC2C(=O)Nc1ccc(CC2CCC(C(O)c3ccccc3)N2)cc1` (single isomer, unassigned) [Example 228] as the molecule, how does the EC50 read?
Its EC50 is 1 to 3 µM.
